# Biological target: recombinant full length HPK-1 enzyme (Homo sapiens (Human), UniProt Q92918)
# Test: HPK-1 biochemical enzyme assay (ADP-Glo kinase inhibition)
# Conditions: recombinant full length HPK-1 6.8 nM, 10 μM ATP, 12.5 μM MBP, 30 mins at 25° C.
# Method in brief: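 ADP-Glo readout of ADP formed after a 30 min, 25° C. reaction of 6.8 nM full-length HPK-1 with swine myelin basic protein (12.5 μM) and ATP (10 μM) in Tris pH 7.4 buffer with MgCl2, DTT and BSA. Ten compound concentrations tested; percent inhibition set against vehicle (0%) and no-enzyme (100%) controls gave IC50.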
# Chain of recombinant full length HPK-1 enzyme (Q92918 whole entry, species assumed): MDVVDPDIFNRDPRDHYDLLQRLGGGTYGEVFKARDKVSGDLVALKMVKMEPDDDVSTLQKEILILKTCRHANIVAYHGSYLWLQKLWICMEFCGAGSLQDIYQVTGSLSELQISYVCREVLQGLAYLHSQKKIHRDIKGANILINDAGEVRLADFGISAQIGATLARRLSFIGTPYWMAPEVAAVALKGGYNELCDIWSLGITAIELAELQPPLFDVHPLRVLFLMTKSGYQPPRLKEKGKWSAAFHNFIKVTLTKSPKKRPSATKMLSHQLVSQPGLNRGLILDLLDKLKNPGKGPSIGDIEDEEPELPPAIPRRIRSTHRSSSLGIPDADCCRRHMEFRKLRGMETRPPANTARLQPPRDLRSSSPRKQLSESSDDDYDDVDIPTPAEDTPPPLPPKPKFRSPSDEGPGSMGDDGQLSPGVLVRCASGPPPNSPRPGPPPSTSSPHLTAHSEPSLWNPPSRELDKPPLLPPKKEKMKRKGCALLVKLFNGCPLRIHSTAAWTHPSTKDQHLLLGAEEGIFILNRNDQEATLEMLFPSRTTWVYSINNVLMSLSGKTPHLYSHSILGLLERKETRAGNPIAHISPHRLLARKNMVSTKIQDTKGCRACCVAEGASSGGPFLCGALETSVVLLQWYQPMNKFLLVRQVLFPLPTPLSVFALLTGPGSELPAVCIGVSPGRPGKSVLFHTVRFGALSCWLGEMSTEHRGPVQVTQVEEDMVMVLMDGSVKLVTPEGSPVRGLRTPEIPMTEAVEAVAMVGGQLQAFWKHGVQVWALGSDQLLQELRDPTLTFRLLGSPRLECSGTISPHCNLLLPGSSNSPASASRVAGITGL
row,IC50 [nM],SMILES
1,10 to 100,"Cc1c(Nc2cc[nH]c(=O)c2C(=O)Nc2ccc3c(c2)OCC(=O)N3)cnc2c1NCCO2 [Example 269, 4-((8-methyl-2,3-dihydro-1H-pyrido[2,3-b][1,4]oxazin-7-yl)amino)-2-oxo-N-(3-oxo-3,4-dihydro-2H-benzo[b][1,4]oxazin-7-yl)-1,2-dihydropyridine-3-carboxamide]"
2,10 to 100,"COCc1cc(N2CCN(c3ccc(NC(=O)c4c(Nc5cnc6c(c5C)NCCO6)cc[nH]c4=O)cc3)CC2)ccn1 [Example 364, N-(4-(4-(2-(methoxymethyl)pyridin-4-yl)piperazin-1-yl)phenyl)-4-((8-methyl-2,3-dihydro-1H-pyrido[2,3-b][1,4]oxazin-7-yl)amino)-2-oxo-1,2-dihydropyridine-3-carboxamide]"

# — patent US20250282794A1 (CURADEV PHARMA LTD, priority 2022, published 2025)
